{"source": "patent EP2298778A1", "about": "“IMIDAZOTHIAZOLE DERIVATIVE HAVING 4,7-DIAZASPIROÝ2.5¨OCTANE RING STRUCTURE” (Daiichi Sankyo Company, Limited, priority 2008, dated 2009)", "experiment": "Metabolic stability test (microsomal metabolism test)", "format": "in vitro ADME", "details": "pH 7.4; human-derived liver microsomes, test compound remaining after addition of NADP+ and incubation at 37°C for 30 minutes; read-out: metabolic stability of T/C%", "experimental": "(Test Example 3 Metabolic stability test) 100 µL of 100 mM phosphate buffer solution (pH 7.4) containing 3 µM test compound was added to 100 µL of reaction solution containing 100 mM phosphate buffer solution (pH 7.4), 30 mM glucose 6-phosphate, 10 mM MgCl2·6H2O, 3 units/mL glucose 6-phosphate 1-dehydrogenase, and 0.3 to 1.5 mgP/mL human liver microsomes and the mixture was incubated at 37°C for 20 minutes. Then, 70 µL of 100 mM phosphate buffer solution (pH 7.4) containing 3 mM NADP^+ was added and the mixture was incubated at 37°C for 30 minutes to conduct a microsomal metabolism test. The metabolic stability was calculated according to the following formula: T/C (%) = ((concentration of test compound after addition of NADP)^+and incubation for30minutes)/((concentration of test compound before addition of NADP)^+) × 100. [formula] […]", "data": [{"smiles": "CC(C)C1=C(C(=O)N2[C@H](C)CC[C@H]2C(=O)N2CC3(CC3)N(C)C[C@H]2C)SC2=N[C@@](C)(c3ccc(Cl)nc3)[C@@H](c3ccc(Cl)c(F)c3)N21", "note": "[Example 24, (6R)-7-[(5R)-1-{[(5R,6S)-5-(4-chloro-3-fluorophenyl)-6-(6-chloropyridin-3-yl)-3-isopropyl-6-methyl-5,6-dihydroimidazo[2,1-b][1,3]thiazol-2-yl]carbonyl}-5-methyl-L-prolyl]-4,6-dimethyl-4,7-diazaspiro[2.5]octane]", "values": [{"measurement": "remaining at 0.5 h", "value": "≥ 50", "unit": "%"}]}, {"smiles": "CC(C)C1=C(C(=O)N2[C@H](C)CC[C@H]2C(=O)N2CC3(CC3)NC[C@H]2C)SC2=N[C@@](C)(c3ccc(Cl)nc3)[C@@H](c3ccc(Cl)c(F)c3)N21", "note": "[Example 23, (6R)-7-[(5R)-1-{ [(5R,6S)-5-(4-chloro-3-fluorophenyl)-6-(6-chloropyridin-3-yl)-3-isopropyl-6-methyl-5,6-dihydroimidazo[2,1-b][1,3]thiazol-2-yl]carbonyl}-5-methyl-L-prolyl]-6-methyl-4,7-diazaspiro[2.5]octane]", "values": [{"measurement": "remaining at 0.5 h", "value": "≥ 50", "unit": "%"}]}, {"smiles": "CC(C)C1=C(C(=O)N2[C@H](C)CC[C@H]2C(=O)N2C[C@@H](C)N(C)C3(CC3)C2)SC2=N[C@@](C)(c3ccc(Cl)nc3)[C@@H](c3ccc(Cl)c(F)c3)N21", "note": "[Example 18, (5R)-7-[(5R)-1-{[(5R,6S)-5-(4-chloro-3-fluorophenyl)-6-(6-chloropyridin-3-yl)-3-isopropyl-6-methyl-5,6-dihydroimidazo[2,1-b][1,3]thiazol-2-yl]carbonyl}-5-methyl-L-prolyl]-4,5-dimethyl-4,7-diazaspiro[2.5]octane]", "values": [{"measurement": "remaining at 0.5 h", "value": "≥ 50", "unit": "%"}]}, {"smiles": "COc1ccc([C@]2(C)N=C3SC(C(=O)N4[C@H](C)CC[C@H]4C(=O)N4CCNC5(CC5)C4)=C(C(C)C)N3[C@@H]2c2ccc(Cl)c(F)c2)cc1", "note": "[Example 72, 7-[(5R)-1-{[(5R,6S)-5-(4-chloro-3-fluorophenyl)-3-isopropyl-6-(4-methoxyphenyl)-6-methyl-5,6-dihydroimidazo[2,1-b][1,3]thiazol-2-yl]carbonyl}-5-methyl-L-prolyl]-4,7-diazaspiro[2.5]octane]", "values": [{"measurement": "remaining at 0.5 h", "value": "≥ 50", "unit": "%"}]}, {"smiles": "CCN(C(=O)C1=C(C(C)C)N2C(=N[C@@](C)(c3ccc(Cl)cc3)[C@H]2c2ccc(Cl)c(F)c2)S1)C1(C(=O)N2CCNC3(CC3)C2)CC1", "note": "[Example 52, (5R,6S)-5-(4-chloro-3-fluorophenyl)-6-(4-chlorophenyl)-N-[1-(4,7-diazaspiro[2.5]oct-7-ylcarbonyl)cyclopropyl]-N-ethyl-3-isopropyl-6-methyl-5,6-dihydroimidazo[2,1-b][1,3]thiazole-2-carboxamide]", "values": [{"measurement": "remaining at 0.5 h", "value": "≥ 50", "unit": "%"}]}, {"smiles": "CC(C)C1=C(C(=O)N2[C@H](C)CC[C@H]2C(=O)N2CC3(CC3)N(C)C[C@@H]2C)SC2=N[C@@](C)(c3ccc(Cl)nc3)[C@@H](c3ccc(Cl)c(F)c3)N21", "note": "[Example 22, (6S)-7-[(5R)-1-{[(5R,6S)-5-(4-chloro-3-fluorophenyl)-6-(6-chloropyridin-3-yl)-3-isopropyl-6-methyl-5,6-dihydroimidazo[2,1-b][1,3]thiazol-2-yl]carbonyl}-5-methyl-L-prolyl]-4,6-dimethyl-4,7-diazaspiro[2.5]octane]", "values": [{"measurement": "remaining at 0.5 h", "value": "≥ 50", "unit": "%"}]}, {"smiles": "CC[C@@H]1CC[C@@H](C(=O)N2C[C@@H](C)NC3(CC3)C2)N1C(=O)C1=C(C(C)C)N2C(=N[C@@](C)(c3ccc(Cl)nc3)[C@H]2c2ccc(Cl)c(F)c2)S1", "note": "[Example 55, (5R)-7-[(5R)-1-{[(5R,6S)-5-(4-chloro-3-fluorophenyl)-6-(6-chloropyridin-3-yl)-3-isopropyl-6-methyl-5,6-dihydroimidazo[2,1-b][1,3]thiazol-2-yl]carbonyl}-5-ethyl-L-prolyl]-5-methyl-4,7-diazaspiro[2.5]octane]", "values": [{"measurement": "remaining at 0.5 h", "value": "≥ 50", "unit": "%"}]}, {"smiles": "CC(C)C1=C(C(=O)N2C[C@@](C)(O)C[C@H]2C(=O)N2CC3(CC3)NC[C@@H]2C)SC2=N[C@@](C)(c3ccc(Cl)nc3)[C@@H](c3ccc(Cl)c(F)c3)N21", "note": "[Example 68, (3S,5S)-1-{[(5R,6S)-5-(4-chloro-3-fluorophenyl)-6-(6-chloropyridin-3-yl)-3-isopropyl-6-methyl-5,6-dihydroimidazo[2,1-b][1,3]thiazol-2-yl]carbonyl}-3-methyl-5-{[(6S)-6-methyl-4,7-diazaspiro[2.5]oct-7-yl]carbonyl}pyrrolidin-3-ol]", "values": [{"measurement": "remaining at 0.5 h", "value": "≥ 50", "unit": "%"}]}, {"smiles": "CC(C)C1=C(C(=O)N2[C@H](C)CC[C@H]2C(=O)N2CCN(C)C3(CC3)C2)SC2=N[C@@](C)(c3ccc(Cl)cc3)[C@@H](c3ccc(Cl)cc3)N21", "note": "[Example 2, 7-[(5R)-1-{[(5R,6S)-5,6-bis(4-chlorophenyl)-3-isopropyl-6-methyl-5,6-dihydroimidazo[2,1-b][1,3]thiazol-2-yl]carbonyl}-5-methyl-L-prolyl]-4-methyl-4,7-diazaspiro[2.5]octane]", "values": [{"measurement": "remaining at 0.5 h", "value": "≥ 50", "unit": "%"}]}, {"smiles": "CC(C)C1=C(C(=O)N2[C@H](C)CC[C@H]2C(=O)N2CCN(C)C3(CC3)C2)SC2=N[C@@](C)(c3ccc(Cl)cc3)[C@@H](c3ccc(Cl)c(F)c3)N21", "note": "[Example 6, 7-[(5R)-1-{[(5R,6S)-5-(4-chloro-3-fluorophenyl)-6-(4-chlorophenyl)-3-isopropyl-6-methyl-5,6-dihydroimidazo[2,1-b][1,3]thiazol-2-yl]carbonyl}-5-methyl-L-prolyl]-4-methyl-4,7-diazaspiro[2.5]octane]", "values": [{"measurement": "remaining at 0.5 h", "value": "≥ 50", "unit": "%"}]}, {"smiles": "CC(C)C1=C(C(=O)N2[C@H](C)CC[C@H]2C(=O)N2CC3(CC3)NC[C@@H]2C)SC2=N[C@@](C)(c3ccc(Cl)nc3)[C@@H](c3ccc(Cl)c(F)c3)N21", "note": "[Example 21, (6S)-7-[(5R)-1-{[(5R,6S)-5-(4-chloro-3-fluorophenyl)-6-(6-chloropyridin-3-yl)-3-isopropyl-6-methyl-5,6-dihydroimidazo[2,1-b][1,3]thiazol-2-yl]carbonyl}-5-methyl-L-prolyl]-6-methyl-4,7-diazaspiro[2.5]octane]", "values": [{"measurement": "remaining at 0.5 h", "value": "≥ 50", "unit": "%"}]}, {"smiles": "CC[C@H]1CNC2(CC2)CN1C(=O)[C@@H]1CC[C@@H](C)N1C(=O)C1=C(C(C)C)N2C(=N[C@@](C)(c3ccc(Cl)nc3)[C@H]2c2ccc(Cl)c(F)c2)S1", "note": "[Example 58, (6S)-7-[(5R)-1-{[(5R,6S)-5-(4-chloro-3-fluorophenyl)-6-(6-chloropyridin-3-yl)-3-isopropyl-6-methyl-5,6-dihydroimidazo[2,1-b][1,3]thiazol-2-yl]carbonyl}-5-methyl-L-prolyl]-6-ethyl-4,7-diazaspiro[2.5]octane]", "values": [{"measurement": "remaining at 0.5 h", "value": "≥ 50", "unit": "%"}]}, {"smiles": "CC(C)C1=C(C(=O)N2[C@H](C)CC[C@H]2C(=O)N2C[C@@H](C)NC3(CC3)C2)SC2=N[C@@](C)(c3ccc(Cl)cc3)[C@@H](c3ccc(Cl)cc3)N21", "note": "[Example 16, (5R)-7-[(5R)-1-{[(5R,6S)-5,6-bis(4-chlorophenyl)-3-isopropyl-6-methyl-5,6-dihydroimidazo[2,1-b][1,3]thiazol-2-yl]carbonyl}-5-methyl-L-prolyl]-5-methyl-4,7-diazaspiro[2.5]octane]", "values": [{"measurement": "remaining at 0.5 h", "value": "≥ 50", "unit": "%"}]}, {"smiles": "CCN(C(=O)C1=C(C(C)C)N2C(=N[C@@](C)(c3ccc(Cl)cc3)[C@H]2c2ccc(Cl)cc2)S1)[C@@H](C)C(=O)N1CCNC2(CC2)C1", "note": "[Example 54, (5R,6S)-5,6-bis(4-chlorophenyl)-N-[(1S)-2-(4,7-diazaspiro[2.5]oct-7-yl)-1-methyl-2-oxoethyl]-N-ethyl-3-isopropyl-6-methyl-5,6-dihydroimidazo[2,1-b][1,3]thiazole-2-carboxamide]", "values": [{"measurement": "remaining at 0.5 h", "value": "≥ 50", "unit": "%"}]}]}
